Test results taken from patent US12077503B2, “Substituted cyclic amides and their use as herbicides” (FMC CORPORATION, priority 2015, dated 2024).

What was measured:
Format in all cases: in vivo
[1] = test system: barnyardgrass (Echinochloa crus-galli); assay: Test G Pre-Emergence Protocol; settings: evaluated after 13 days
Protocol: (§1) Seeds of corn (Zea mays), giant foxtail (Setaria faberi), barnyardgrass (Echinochloa crus-galli), ivy-leaved morning glory (Ipomoea hederacea), redroot pigweed (Amaranthus retroflexus) and velvetleaf (Abutilon theophrasti) were sown in standard soil in pots. After cultivation for one day under controlled conditions in a glasshouse (at 24/16° C., day/night; 14 hours light; 65% humidity), the plants were sprayed with an aqueous spray solution derived from the formulation of the technical active ingredient in acetone/water (50:50) solution containing 0.5% Tween 20 (polyoxyethylene sorbitan monolaurate, CAS RN 9005-64-5) to give a final dose of 15.625, 62.5 or 250 g/ha of test compound.
(§2) The test plants were then grown on under controlled conditions in a glasshouse (at 24/16° C., day/night; 14 hours light; 65% humidity) and watered twice daily. After 13 days the test was evaluated (100=total damage to plant; 0=no damage to plant). A dash (-) means no test result.

[2] = test system: corn (Zea mays); assay: Test G Pre-Emergence Protocol; settings: evaluated after 13 days
Protocol: as §1, §2

[3] = test system: giant foxtail (Setaria faberi); assay: Test G Pre-Emergence Protocol; settings: evaluated after 13 days
Protocol: as §1, §2

[4] = test system: ivy-leaved morning glory (Ipomoea hederacea); assay: Test G Pre-Emergence Protocol; settings: evaluated after 13 days; for Morningglory, Ivy-leaved damage rating (100=total damage to plant; 0=no damage to plant): 250 g ai/ha
Protocol: as §1, §2

[5] = test system: redroot pigweed (Amaranthus retroflexus); assay: Test G Pre-Emergence Protocol; settings: evaluated after 13 days
Protocol: as §1, §2

[6] = test system: velvetleaf (Abutilon theophrasti); assay: Test G Pre-Emergence Protocol; settings: evaluated after 13 days
Protocol: as §1, §2

[7] = test system: barnyardgrass (Echinochloa crus-galli); assay: Test G Post-Emergence Protocol
Protocol: as §1, with “8 days” for “one day”
as §2

[8] = test system: corn (Zea mays); assay: Test G Post-Emergence Protocol
Protocol: as §1, with “8 days” for “one day”
as §2

[9] = test system: giant foxtail (Setaria faberi); assay: Test G Post-Emergence Protocol
Protocol: as §1, with “8 days” for “one day”
as §2

[10] = test system: ivy-leaved morning glory (Ipomoea hederacea); assay: Test G Post-Emergence Protocol
Protocol: as §1, with “8 days” for “one day”
as §2

[11] = test system: redroot pigweed (Amaranthus retroflexus); assay: Test G Post-Emergence Protocol
Protocol: as §1, with “8 days” for “one day”
as §2

[12] = test system: velvetleaf (Abutilon theophrasti); assay: Test G Post-Emergence Protocol
Protocol: as §1, with “8 days” for “one day”
as §2

[13] = 62.5 g ai/ha, 100=total damage to plant, 0=no damage to plant
[14] = 15.625 g ai/ha, evaluated after 13 days (100=total damage to plant; 0=no damage to plant)
[15] = 62.5 g ai/ha, evaluated after 13 days
[16] = 250 g ai/ha, evaluated after 13 days

Structure (SMILES): COc1c(Cl)ccc([C@H]2CN(C)C(=O)[C@@H]2C(=O)Nc2cccc(F)c2F)c1F (racemic) [Compound 1476]
- Barnyardgrass damage rating (100=total damage to plant; 0=no damage to plant) ([1]; 250 g ai/ha): 80
- pest or weed control at 15.625 g/ha ([1]; Echinochloa crus-galli, pre-emergence, 312 h, 15.625 g ai/ha, read-out: Barnyard grass damage rating (100=total damage to plant; 0=no damage to plant)): 60%
- pest or weed control at 62.5 g/ha ([1]; Echinochloa crus-galli, pre-emergence, 312 h, 62.5 g ai/ha, 100=total damage to plant, 0=no damage to plant, read-out: plant damage rating, Barnyardgrass): 70%
- Corn damage rating (100=total damage to plant; 0=no damage to plant) ([2]; 15.625 g ai/ha): 0
- Corn damage rating (100=total damage to plant; 0=no damage to plant) ([2]; 250 g ai/ha): 50
- plant injury at 62.5 g/ha ([2]; Zea mays, pre-emergence, 312 h, 62.5 g ai/ha, 100=total damage to plant, 0=no damage to plant, read-out: plant damage rating, Corn): 0%
- Foxtail, Giant damage rating (100=total damage to plant; 0=no damage to plant) ([3]; 15.625 g ai/ha): 70
- Foxtail, Giant damage rating (100=total damage to plant; 0=no damage to plant) ([3]; 250 g ai/ha): 80
- pest or weed control at 62.5 g/ha ([3]; Setaria faberi, pre-emergence, 312 h, 62.5 g ai/ha, 100=total damage to plant, 0=no damage to plant, read-out: plant damage rating, Foxtail, Giant): 80%
- Morningglory, Ivy-leaved damage rating (100=total damage to plant; 0=no damage to plant) [4]: 0
- pest or weed control at 15.625 g/ha ([4]; Ipomoea, pre-emergence, 312 h, 15.625 g ai/ha, read-out: Morning-glory, Ivy-leaved damage rating (100=total damage to plant; 0=no damage to plant)): 0%
- pest or weed control at 62.5 g/ha ([4]; Ipomoea, pre-emergence, 312 h, 62.5 g ai/ha, 100=total damage to plant, 0=no damage to plant, read-out: plant damage rating, Morningglory, Ivy-leaved): 0%
- Pigweed, Redroot damage rating (100=total damage to plant; 0=no damage to plant) ([5]; 15.625 g ai/ha): 0
- Pigweed, Redroot damage rating (100=total damage to plant; 0=no damage to plant) ([5]; 250 g ai/ha): 0
- pest or weed control at 62.5 g/ha ([5]; Amaranthus retroflexus, pre-emergence, 312 h, 62.5 g ai/ha, 100=total damage to plant, 0=no damage to plant, read-out: plant damage rating, Pigweed, Redroot): 0%
- Velvetleaf damage rating (100=total damage to plant; 0=no damage to plant) ([6]; 15.625 g ai/ha): 0
- Velvetleaf damage rating (100=total damage to plant; 0=no damage to plant) ([6]; 250 g ai/ha): 0
- pest or weed control at 62.5 g/ha ([6]; Abutilon theophrasti, pre-emergence, 312 h, 62.5 g ai/ha, 100=total damage to plant, 0=no damage to plant, read-out: plant damage rating, Velvetleaf): 0%
- pest or weed control at 15.625 g/ha ([7]; Echinochloa crus-galli, post-emergence, 312 h, 15.625 g ai/ha, evaluated after 13 days (100=total damage to plant; 0=no damage to plant), read-out: Barnyardgrass damage rating): 40%
- pest or weed control at 62.5 g/ha ([7]; Echinochloa crus-galli, post-emergence, 312 h, 62.5 g ai/ha, evaluated after 13 days, read-out: Barnyardgrass damage rating (100=total damage to plant; 0=no damage to plant)): 50%
- pest or weed control at 250 g/ha ([7]; Echinochloa crus-galli, post-emergence, 312 h, 250 g ai/ha, evaluated after 13 days, read-out: damage to plant, Barnyardgrass (100=total damage to plant; 0=no damage to plant)): 60%
- plant injury at 15.625 g/ha ([8]; Zea mays, post-emergence, 312 h, 15.625 g ai/ha, evaluated after 13 days (100=total damage to plant; 0=no damage to plant), read-out: Corn damage rating): 10%
- plant injury at 62.5 g/ha ([8]; Zea mays, post-emergence, 312 h, 62.5 g ai/ha, evaluated after 13 days, read-out: Corn damage rating (100=total damage to plant; 0=no damage to plant)): 20%
- plant injury at 250 g/ha ([8]; Zea mays, post-emergence, 312 h, 250 g ai/ha, evaluated after 13 days, read-out: damage to plant, Corn (100=total damage to plant; 0=no damage to plant)): 70%
- pest or weed control at 15.625 g/ha ([9]; Setaria faberi, post-emergence, 312 h, 15.625 g ai/ha, evaluated after 13 days (100=total damage to plant; 0=no damage to plant), read-out: Foxtail, Giant damage rating): 60%
- pest or weed control at 62.5 g/ha ([9]; Setaria faberi, post-emergence, 312 h, 62.5 g ai/ha, evaluated after 13 days, read-out: Foxtail, Giant damage rating (100=total damage to plant; 0=no damage to plant)): 70%
- pest or weed control at 250 g/ha ([9]; Setaria faberi, post-emergence, 312 h, 250 g ai/ha, evaluated after 13 days, read-out: damage to plant, Foxtail, Giant (100=total damage to plant; 0=no damage to plant)): 70%
- pest or weed control at 15.625 g/ha ([10]; Ipomoea, post-emergence, 312 h, 15.625 g ai/ha, evaluated after 13 days (100=total damage to plant; 0=no damage to plant), read-out: Morningglory, Ivy-leaved damage rating): 20%
- pest or weed control at 62.5 g/ha ([10]; Ipomoea, post-emergence, 312 h, 62.5 g ai/ha, evaluated after 13 days, read-out: Morningglory, Ivy-leaved damage rating (100=total damage to plant; 0=no damage to plant)): 20%
- pest or weed control at 250 g/ha ([10]; Ipomoea, post-emergence, 312 h, 250 g ai/ha, evaluated after 13 days, read-out: damage to plant, Morningglory, Ivy-leaved (100=total damage to plant; 0=no damage to plant)): 60%
- pest or weed control at 15.625 g/ha ([11]; Amaranthus retroflexus, post-emergence, 312 h, 15.625 g ai/ha, evaluated after 13 days (100=total damage to plant; 0=no damage to plant), read-out: Pigweed, Redroot damage rating): 10%
- pest or weed control at 62.5 g/ha ([11]; Amaranthus retroflexus, post-emergence, 312 h, 62.5 g ai/ha, evaluated after 13 days, read-out: Pigweed, Redroot damage rating (100=total damage to plant; 0=no damage to plant)): 0%
- pest or weed control at 250 g/ha ([11]; Amaranthus retroflexus, post-emergence, 312 h, 250 g ai/ha, evaluated after 13 days, read-out: damage to plant, Pigweed, Redroot (100=total damage to plant; 0=no damage to plant)): 10%
- pest or weed control at 15.625 g/ha ([12]; Abutilon theophrasti, post-emergence, 312 h, 15.625 g ai/ha, evaluated after 13 days (100=total damage to plant; 0=no damage to plant), read-out: Velvetleaf damage rating): 10%
- pest or weed control at 62.5 g/ha ([12]; Abutilon theophrasti, post-emergence, 312 h, 62.5 g ai/ha, evaluated after 13 days, read-out: Velvetleaf damage rating (100=total damage to plant; 0=no damage to plant)): 0%
- pest or weed control at 250 g/ha ([12]; Abutilon theophrasti, post-emergence, 312 h, 250 g ai/ha, evaluated after 13 days, read-out: damage to plant, Velvetleaf (100=total damage to plant; 0=no damage to plant)): 10%

Structure (SMILES): CN1CC(c2ccc(C(F)(F)F)cc2)C(C(=O)Nc2[nH]cnc2[N+](=O)[O-])C1=O (racemic) [Compound 1507]
- Barnyardgrass damage rating (100=total damage to plant; 0=no damage to plant) ([1]; 15.625 g ai/ha): 0
- plant damage rating, Barnyardgrass [1, 13]: 0
- Barnyardgrass damage rating (100=total damage to plant; 0=no damage to plant) ([1]; 250 g ai/ha): 0
- Corn damage rating (100=total damage to plant; 0=no damage to plant) ([2]; 15.625 g ai/ha): 0
- plant damage rating, Corn [2, 13]: 0
- Corn damage rating (100=total damage to plant; 0=no damage to plant) ([2]; 250 g ai/ha): 0
- Foxtail, Giant damage rating (100=total damage to plant; 0=no damage to plant) ([3]; 15.625 g ai/ha): 0
- plant damage rating, Foxtail, Giant [3, 13]: 0
- Foxtail, Giant damage rating (100=total damage to plant; 0=no damage to plant) ([3]; 250 g ai/ha): 0
- Morning-glory, Ivy-leaved damage rating (100=total damage to plant; 0=no damage to plant) ([4]; 15.625 g ai/ha): 0
- plant damage rating, Morningglory, Ivy-leaved [4, 13]: 0
- Morningglory, Ivy-leaved damage rating (100=total damage to plant; 0=no damage to plant) [4]: 0
- Pigweed, Redroot damage rating (100=total damage to plant; 0=no damage to plant) ([5]; 15.625 g ai/ha): 0
- plant damage rating, Pigweed, Redroot [5, 13]: 0
- Pigweed, Redroot damage rating (100=total damage to plant; 0=no damage to plant) ([5]; 250 g ai/ha): 0
- Velvetleaf damage rating (100=total damage to plant; 0=no damage to plant) ([6]; 15.625 g ai/ha): 0
- plant damage rating, Velvetleaf [6, 13]: 0
- Velvetleaf damage rating (100=total damage to plant; 0=no damage to plant) ([6]; 250 g ai/ha): 0
- Barnyardgrass damage rating [7, 14]: 0
- Barnyardgrass damage rating (100=total damage to plant; 0=no damage to plant) [7, 15]: 0
- damage to plant, Barnyardgrass (100=total damage to plant; 0=no damage to plant) [7, 16]: 0
- Corn damage rating [8, 14]: 0
- Corn damage rating (100=total damage to plant; 0=no damage to plant) [8, 15]: 0
- damage to plant, Corn (100=total damage to plant; 0=no damage to plant) [8, 16]: 0
- Foxtail, Giant damage rating [9, 14]: 0
- Foxtail, Giant damage rating (100=total damage to plant; 0=no damage to plant) [9, 15]: 0
- damage to plant, Foxtail, Giant (100=total damage to plant; 0=no damage to plant) [9, 16]: 0
- Morningglory, Ivy-leaved damage rating [10, 14]: 0
- Morningglory, Ivy-leaved damage rating (100=total damage to plant; 0=no damage to plant) [10, 15]: 0
- damage to plant, Morningglory, Ivy-leaved (100=total damage to plant; 0=no damage to plant) [10, 16]: 0
- Pigweed, Redroot damage rating [11, 14]: 0
- Pigweed, Redroot damage rating (100=total damage to plant; 0=no damage to plant) [11, 15]: 0
- damage to plant, Pigweed, Redroot (100=total damage to plant; 0=no damage to plant) [11, 16]: 0
- Velvetleaf damage rating [12, 14]: 0
- Velvetleaf damage rating (100=total damage to plant; 0=no damage to plant) [12, 15]: 0
- damage to plant, Velvetleaf (100=total damage to plant; 0=no damage to plant) [12, 16]: 0
